Assays:
[1] = Body weight of neonatal Δ7 SMA mice; assay type: in vivo; conditions: neonatal SMA Δ7 homozygous knockout mice
Protocol: The change in body weight of neonatal SMA mice is used to determine whether treatment with a test compound improves body weight.
Protocol. SMA Δ7 homozygous knockout mice are dosed intraperitoneally (IP) with test compound or vehicle (100% DMSO) QD from PND 3 until the dose regimen is switched to an oral dose BID in 0.5% hydroxypropylmethyl cellulose (HPMC) with 0.1% Tween-80 at a dose 3.16-fold higher than the dose used for IP. Body weights of SMA Δ7 mice treated with test compound or vehicle and age matched heterozygous mice are recorded every day.

[2] = tested on: Smn protein in SMA patient fibroblast cells (GM03813); assay: Smn protein assay in cultured cells (SMN HTRF); assay type: cell-based, human; conditions: 48 hours; for Smn protein expression: SMA Type 1 patient fibroblast cells, SMN HTRF assay (FIG. 8); for EC1.5x for Smn protein expression / maximum fold (Fold) increase of Smn protein: SMA patient fibroblast cells; for EC1.5x for Smn protein expression: 7-point concentration curve, SMN HTRF, concentration producing 1.5 times Smn protein vs DMSO vehicle control; for maximum fold (Fold) increase of Smn protein: 7-point concentration data, fold relative to vehicle control
In short: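 Read-out: HTRF 665/620 nm ratio, blank-subtracted as ΔF, then expressed as fold over DMSO vehicle. Fibroblasts from SMA patients were exposed to compounds for 48 h (7 points, 3.16-fold steps, triplicates). Values are EC1.5× and maximum fold Smn increase.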

Row | SMILES | body weight ([1]; IP QD PND 3 to PND 30, then orally BID from PND 31 until study end (FIG. 13a)) | Smn protein expression [2] | EC1.5x for Smn protein expression [2] | maximum fold (Fold) increase of Smn protein [2] | body weight ([1]; IP QD PND 3 to PND 23, then orally BID from PND 24 until study end (FIG. 13b))
1 | COc1ccc(-c2cc(=O)n3cc(N4CCNCC4)ccc3n2)cc1OC [Cpd 6, 2-(3,4-dimethoxyphenyl)-7-(piperazin-1-yl)-4H-pyrido[1,2-a]pyrimidin-4-one] | improved compared to vehicle treated mice | dose dependent increase in Smn protein expression | *** (an EC1.5× between >0.3 μM and ≤1 μM is indicated by three stars (***)) | **** (a fold increase between >1.5 and ≤1.65 is indicated by four stars (****)) | –
2 | Cc1cn2nc(-c3cc(=O)n4cc(N5CCN(C)CC5)ccc4n3)cc2c(C)n1 [Cpd 170, 2-(4,6-dimethylpyrazolo[1,5-a]pyrazin-2-yl)-7-(4-methylpiperazin-1-yl)-4H-pyrido[1,2-a]pyrimidin-4-one] | – | dose dependent increase in Smn protein expression | **** (an EC1.5x≤0.3 μM is indicated by four stars (****)) | ***** (a fold increase >1.65 is indicated by five stars (*****)) | improved compared to vehicle treated mice

Reference: patent US11753407B2, “Compounds for treating spinal muscular atrophy” (PTC Therapeutics, Inc., priority 2012, dated 2023)
